Reference: patent publication US20240059700A1, “NOVEL DIACYLGLYCERIDE O-ACYLTRANSFERASE 2 INHIBITORS” (Merck Sharp & Dohme LLC, priority 2020, published 2024)

Target: human DGAT2 (hDGAT2) (Homo sapiens (Human), UniProt Q96PD7)
Assay: DGAT2 Enzymatic Activity Assay
Format: biochemical
Conditions: membrane prep of Sf-9 insect cells expressing hDGAT2; 13C18-triolein product by LC/MS/MS
Description: Sf-9 insect cells were maintained in Grace's insect cell culture medium with 10% heated-inactivated fetal bovine serum, 1% Pluronic F-68 and 0.14 μg/ml Kanamycine sulfate at 27° C. in a shaker incubator. After infection with untagged baculovirus expressing human DGAT2 (hDGAT2) at multiplicity of infection (MOI) 3 for 48 hours, cells were harvested. Cell pellets were suspended in buffer containing 10 mM Tris-HCl pH 7.5, 1 mM EDTA, 250 mM sucrose and Complete Protease Inhibitor Cocktail (Sigma Aldrich), and sonicated on ice. Cell debris were removed by centrifugation at 2000×g for 15 minutes. Membrane fractions were isolated by ultracentrifugation (100,000×g), resuspended in the same buffer, and frozen (−80° C.) for later use. The protein concentration was determined with the Pierce™ BCA Protein Assay Kit (Thermo Fisher Scientific). Expression of protein levels was analyzed by immunoblotting with rabbit anti-DGAT2 antibody (Abcam, ab102831) and donkey anti-rabbit IgG H&L Alexa Fluor® 647 (Abcam, ab150075) followed by detection using Typhoon FLA9000 (GE Healthcare).
LC/MS/MS analyses were performed using Thermal Fisher's LX4-TSQ Vantage system. This system consists of an Agilent binary high-performance liquid chromatography (HPLC) pumps and a TSQ Vantage triple quadrupole MS/MS instrument. For each sample, 2 μL samples from the top organic layer of in-plate liquid-liquid extraction were injected onto a Thermo Betabasic C4 column (2.1 mm×20 mm, 5 μm particle size). The samples were then eluted using the following conditions; mobile phase: Isopropanol: acetonitrile/10 mM ammonium formate=50/35/15 (v/v/v), flow rate: 0.8 mL/min, temperature: 25° C. Data was acquired in positive mode using a heated electrospray ionization (HESI) interface. The operational parameters for the TSQ Vantage MS/MS instrument were a spray voltage of 3000 V, capillary temperature of 280° C., vaporizer temperature 400° C., sheath gas 45 arbitrary unit, Aux gas 10 arbitrary units, S-lens 165 and collision gas 1.0 mTorr. […] (SRM) chromatograms of ^13C18-triolein (Q1: 920.8>Q3:621.3) and internal standard ^13C21-triolein (Q1: 923.8>Q3:617.3) were collected for 33 sec. The peak area was integrated by Xcalibur Quan software. The ratio between the ^13C18 triolein generated in the reaction and spiked in internal standard ^13C21-triolein was used to generate percentage inhibition and IC50 values. Compound percentage inhibition was calculated by the following formula: Inhibition %=1−[(compound response−low control)/(high control−low control)]×100%. Potent compounds were titrated and IC50 were calculated by 4 parameter sigmoidal curve fitting formula.
DGAT2 activity was determined by measuring the amount of enzymatic product ^13C18-triolein (^13C-1,2,3-Tri(cis-9-octadecenoyl)glycerol) using the membrane prep mentioned above. The assay was carried out in ABgene 384-well assay plates in a final volume of 25 μL at rt. The assay mixture contained the following: assay buffer (100 mM Tris·Cl, pH 7.0, 20 mM MgCl2, 5% ethanol), 25 μM of diolein, 5 μM of ^13C oleoyl-CoA and 8 ng/μL of DGAT2 membrane.

human DGAT2 (hDGAT2), sequence (Q96PD7 whole entry): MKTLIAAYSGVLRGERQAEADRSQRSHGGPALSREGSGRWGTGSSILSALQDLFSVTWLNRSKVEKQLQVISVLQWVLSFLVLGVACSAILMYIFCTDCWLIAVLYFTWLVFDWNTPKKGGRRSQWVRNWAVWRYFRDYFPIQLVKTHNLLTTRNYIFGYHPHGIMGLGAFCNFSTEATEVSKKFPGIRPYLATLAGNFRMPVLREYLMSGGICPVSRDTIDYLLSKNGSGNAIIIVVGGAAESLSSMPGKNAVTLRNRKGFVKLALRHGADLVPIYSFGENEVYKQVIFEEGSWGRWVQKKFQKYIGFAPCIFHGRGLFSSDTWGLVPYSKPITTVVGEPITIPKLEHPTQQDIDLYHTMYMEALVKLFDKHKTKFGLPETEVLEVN

| SMILES | IC50 [nM] |
| --- | --- |
| CC[C@H](C)n1nc(-c2cc(OC(F)F)ncc2F)c2ncc(C(=O)NC3(C)CCS(=O)(=O)CC3)cc21 [Example 116, (S)-1-(sec-butyl)-3-(2-(difluoromethoxy)-5-fluoropyridin-4-yl)-N-(4-methyl-1,1-dioxidotetrahydro-2H-thiopyran-4-yl)-1H-pyrazolo[4,3-b]pyridine-6-carboxamide] | 11.5 |
| CC1(NC(=O)c2cnc3c(-c4cccc(OC(F)F)c4)nn(C4COC4)c3c2)CS(=O)(=O)C1 [Example 61, 3-[3-(difluoromethoxy)phenyl]-N-(3-methyl-1,1-dioxo-thietan-3-yl)-1-(oxetan-3-yl)pyrazolo[4,3-b]pyridine-6-carboxamide] | 65 |
| CC(C)n1nc(-c2cc(C3CC3)ccc2F)c2ncc(C(=O)NC3(C)CS(=O)(=O)C3)cc21 [Example 117, 3-(5-cyclopropyl-2-fluorophenyl)-1-isopropyl-N-(3-methyl-1,1-dioxidothietan-3-yl)-1H-pyrazolo[4,3-b]pyridine-6-carboxamide] | 9.6 |
| CC1(NC(=O)c2cnc3c(-c4cccc(OC(F)F)c4)nn(C4CC4)c3c2)CS(=O)(=O)C1 [Example 30, 1-cyclopropyl-3-(3-(difluoromethoxy)phenyl)-N-(3-methyl-1,1-dioxidothietan-3-yl)-1H-pyrazolo[4,3-b]pyridine-6-carboxamide] | 99 |
| CC(C)n1nc(-c2cccc(OC(F)F)c2)c2ncc(C(=O)N[C@]3(C#N)CCOC3)cc21 [Example 38, N-[(3S)-3-cyanotetrahydrofuran-3-yl]-3-[3-(difluoromethoxy)phenyl]-1-isopropyl-pyrazolo[4,3-b]pyridine-6-carboxamide] | 11 |
| CC1(NC(=O)c2cnc3c(-c4cccc(OC(F)F)c4)nn(-c4ncc(F)cn4)c3c2)CS(=O)(=O)C1 [Example 4, 3-(3-(difluoromethoxy)phenyl)-1-(5-fluoropyrimidin-2-yl)-N-(3-methyl-1,1-dioxidothietan-3-yl)-1H-pyrazolo[4,3-b]pyridine-6-carboxamide] | 17 |
| N[C@@H]1COC[C@H]1NC(=O)c1cnc2c(-c3cccc(OC(F)F)c3)cn(-c3ncc(F)cn3)c2c1 [Example 22, N-((3S,4S)-4-aminotetrahydrofuran-3-yl)-3-(3-(difluoromethoxy)phenyl)-1-(5-fluoropyrimidin-2-yl)-1H-pyrrolo[3,2-b]pyridine-6-carboxamide] | 630 |
| CC(CS(C)(=O)=O)NC(=O)c1cnc2c(-c3cccc(OC(F)F)c3)cn(-c3ncc(F)cn3)c2c1 (stereo not drawn) [Example 17, 3-(3-(difluoromethoxy)phenyl)-1-(5-fluoropyrimidin-2-yl)-N-(1-(methylsulfonyl)propan-2-yl)-1H-pyrrolo[3,2-b]pyridine-6-carboxamide] | 72 |
| C[C@]1(NC(=O)c2cc3c(cn2)c(-c2cncc(OC(F)F)c2)nn3-c2ccc(F)cc2)CCS(=O)(=O)C1 [Example 6, (S)-3-(5-(difluoromethoxy)pyridin-3-yl)-1-(4-fluorophenyl)-N-(3-methyl-1,1-dioxidotetrahydrothiophen-3-yl)-1H-pyrazolo[4,3-c]pyridine-6-carboxamide] | 89 |
| O=C(NCC1CC(F)(F)C1)c1cnc2c(-c3cccc(OC(F)F)c3)cn(-c3ncc(F)cn3)c2c1 [Example 19, N-((3,3-difluorocyclobutyl)methyl)-3-(3-(difluoromethoxy)phenyl)-1-(5-fluoropyrimidin-2-yl)-1H-pyrrolo[3,2-b]pyridine-6-carboxamide] | > 1000 |
| CC(C)n1nc(-c2cc(OC(F)F)ccc2F)c2ncc(C(=O)NC(C)(C)CN(C)C)cc21 [Example 55, 3-(5-(difluoromethoxy)-2-fluorophenyl)-N-(1-(dimethylamino)-2-methylpropan-2-yl)-1-isopropyl-1H-pyrazolo[4,3-b]pyridine-6-carboxamide] | 212 |
| CC(C)Cn1nc(-c2cccc(OC(F)F)c2)c2ncc(C(=O)NC3(C)CS(=O)(=O)C3)cc21 [Example 28, 3-(3-(difluoromethoxy)phenyl)-1-isobutyl-N-(3-methyl-1,1-dioxidothietan-3-yl)-1H-pyrazolo[4,3-b]pyridine-6-carboxamide] | 29 |
| CC(C)n1nc(-c2cc(OC(F)(F)F)ccc2F)c2ncc(C(=O)NC3(C)CCS(=O)(=O)CC3)cc21 [Example 118, 3-(2-fluoro-5-(trifluoromethoxy)phenyl)-1-isopropyl-N-(4-methyl-1,1-dioxidotetrahydro-2H-thiopyran-4-yl)-1H-pyrazolo[4,3-b]pyridine-6-carboxamide] | 20 |
| CC(C)n1nc(-c2cccc(C3CC3)c2)c2ncc(C(=O)NC3(C)CS(=O)(=O)C3)cc21 [Example 92, 3-(3-cyclopropylphenyl)-1-isopropyl-N-(3-methyl-1,1-dioxidothietan-3-yl)-1H-pyrazolo[4,3-b]pyridine-6-carboxamide] | 31 |
| CC1(NC(=O)c2cnc3c(-c4cccc(OC(F)F)c4)nn(CC4CCOCC4)c3c2)CS(=O)(=O)C1 [Example 69, 3-(3-(difluoromethoxy)phenyl)-N-(3-methyl-1,1-dioxidothietan-3-yl)-1-((tetrahydro-2H-pyran-4-yl)methyl)-1H-pyrazolo[4,3-b]pyridine-6-carboxamide] | 59 |
| CC(C(N)=O)n1nc(-c2cc(OC(F)F)ccc2F)c2ncc(C(=O)NC3(C)CS(=O)(=O)C3)cc21 (stereo not drawn) [Example 90, 1-(1-amino-1-oxopropan-2-yl)-3-(5-(difluoromethoxy)-2-fluorophenyl)-N-(3-methyl-1,1-dioxidothietan-3-yl)-1H-pyrazolo[4,3-b]pyridine-6-carboxamide] | 480 |
| CC(C)n1nc(-c2cc(OCC(F)F)ncc2F)c2ncc(C(=O)NC3(C)CS(=O)(=O)C3)cc21 [Example 121, 3-(2-(2,2-difluoroethoxy)-5-fluoropyridin-4-yl)-1-isopropyl-N-(3-methyl-1,1-dioxidothietan-3-yl)-1H-pyrazolo[4,3-b]pyridine-6-carboxamide] | 8.3 |
| C[C@]1(NC(=O)c2cnc3c(-c4ccccc4Cl)cn(-c4ccc(F)cc4)c3c2)CCS(=O)(=O)C1 [Example 11, (S)-3-(2-chlorophenyl)-1-(4-fluorophenyl)-N-(3-methyl-1,1-dioxidotetrahydrothiophen-3-yl)-1H-pyrrolo[3,2-b]pyridine-6-carboxamide] | 186 |
| CC(C)n1nc(-c2cccc(OC(F)F)c2)c2ccc(C(=O)NC3(C)CS(=O)(=O)C3)c(F)c21 [Example 34, 3-(3-(difluoromethoxy)phenyl)-7-fluoro-1-isopropyl-N-(3-methyl-1,1-dioxidothietan-3-yl)-1H-indazole-6-carboxamide] | 5.2 |
| CC(C)n1nc(-c2cccc(C(C)(F)F)c2)c2ncc(C(=O)NC3(C)CS(=O)(=O)C3)cc21 [Example 93, 3-[3-(1,1-difluoroethyl)phenyl]-1-isopropyl-N-(3-methyl-1,1-dioxo-thietan-3-yl)pyrazolo[4,3-b]pyridine-6-carboxamide] | 210 |
| CC(C)[C@H](NC(=O)c1cnc2c(-c3cncc(OC(F)F)c3)nn(C(C)C)c2c1)[C@H](C)O [Example 54, 3-(5-(difluoromethoxy)pyridin-3-yl)-N-((2S,3S)-2-hydroxy-4-methylpentan-3-yl)-1-isopropyl-1H-pyrazolo[4,3-b]pyridine-6-carboxamide] | 13 |
